Test results taken from paper PMC8333062, “Chemical tools for epichaperome-mediated interactome dysfunctions of the central nervous system” (Nature Communications, 2021).
Where “and” joins values, the source holds several entries; their conditions need not be identical. Equal values may be shown once.

How the values were obtained:
[1] = system: epichaperomes in MDA-MB-468 cells; experiment: Epichaperome modulation, Native PAGE; format: cell-based, human
MDA-MB-468 cells = experiment: Cell viability, ATP levels 72 h; format: cell-based, human; design: key to Cell viability (ATP levels): ATP levels as % of vehicle (DMSO) control; details: replicates; for Cell viability (ATP levels): MDA-MB-468
Experimental: (§1) Supplementary Fig. 15: PU-HZ151 activity in cells is unaffected by Pgp overexpression. a Two Pgp-positive cells lines, Kasumi-1 and HepG2, were tested for epichaperome-positivity. β-Actin, loading control. b ATP levels in cell treated for 72 h with 0 to 1 µM PU-HZ151. Data are presented as means ±s.e.m. of three experimental repeats. Control, vehicle (DMSO) treated cells. c Western blot analysis of aberrant signaling pathway inhibition by […]
(§2) (also on this page, place not known: MDA‐MB-468ASPC1Kasumi Hep G2 ATP levels %Control MDA‐MB-468ASPC1Kasumi 1Hep G2 β-Actin HSP90α Native-PAGE SDS PAGE 100- β-Actin 1)

HepG2 cells (Pgp +ve) = experiment: Cell viability, ATP levels 72 h; format: cell-based, human; details: for Cell viability (ATP levels): HEPG2
Experimental: as §1, §2

[2] = Acute toxicity, single IV infusion; format: in vivo, B6D2F1 mice; details: 2 mg/kg IV once, 14 days
Text: Samus Therapeutics, Inc. Confidential 07-November-2017 […]
other pathologic tissues, such as brain regions afflicted by neurodegeneration).This unique behavior of PU-AD provides the rationale for its favorable therapeutic index. It also provides the rationale for the use of a 124I-labeled PU-AD as a PET imaging agent to 1. detect tissues associated with stress HSP90 and 2. inform on the biodistribution and PK of PU -AD.
To assess acute toxicity of a single intravenous (IV) infusion of PU-AD, B6D2F1 mice (15 males and 15 females/group) were dosed IV once with either vehicle control or PU-AD at a dose of 2 mg/kg, which corresponds to 200x the maximum intended human dose for the PU-AD PET study. […]
normal behavior throughout. […] No abnormal findings were detected during gross necropsy, while complete histopathology evaluation is still pending. […]
To asses if chronic administration of PU -AD presented any toxicities, a preliminary study in 13 (6 male & 7 female) B6C3F1 mice was conducted. […] Thyroid was evaluated because PU-AD contains an […]
124I-PU-AD radiation dosimetry is a key part of this pilot trial, and 124I-PU-AD radiation dosimetry analyses shall be ongoing during the trial. In brief, region -of-interest (ROI) image analysis of 124I-PU-AD PET data allows organ dosimetry, calculated using the MIRD formalism as […]

[3] = LC-MS/MS profile of brain and tumor extracts; details: 1 h post-intravenous injection

Compound: CC(C)(C)CNCCn1c(Sc2cc3c(cc2I)OCO3)nc2c(N)ncnc21 [Compound 85]
- Epichaperome modulation (Native PAGE), R1-R3 ([1]; [PU-HZ151] 0.05 uM): 101.613 and 126.223 and 117.544
- Epichaperome modulation (Native PAGE), R1-R3 ([1]; [PU-HZ151] 0.1 uM): 92.742 and 86.889 and 60.276
- viability at 0.00195312 µM (MDA-MB-468 cells; Homo sapiens, MDA-MB-468, MDA-MB-468, 1.95312 nM): 97.8%
- viability at 0.00390625 µM (MDA-MB-468 cells; Homo sapiens, MDA-MB-468, MDA-MB-468, 3.90625 nM): 107%
- viability at 0.015625 µM (MDA-MB-468 cells; Homo sapiens, MDA-MB-468, MDA-MB-468, 15.625 nM): 107%
- viability at 0.03125 µM (MDA-MB-468 cells; Homo sapiens, MDA-MB-468, MDA-MB-468, 31.25 nM): 34.4%
- viability at 0.125 µM (MDA-MB-468 cells; Homo sapiens, MDA-MB-468, MDA-MB-468, 125 nM): 7.51%
- viability at 0.5 µM (MDA-MB-468 cells; Homo sapiens, MDA-MB-468, MDA-MB-468, 500 nM): 13.5%
- Cell viability (ATP levels) (MDA-MB-468 cells; 1.95312 nM, listed as PU-HZ151, 0.00195312 µM): 110.592 and 103.375
- Cell viability (ATP levels) (MDA-MB-468 cells; 3.90625 nM, listed as PU-HZ151, 0.00390625 µM): 119.425 and 107.367
- Cell viability (ATP levels) (MDA-MB-468 cells; 7.8125 nM, listed as PU-HZ151, 0.0078125 µM): 108.225 and 84.5333 and 99.0667
- Cell viability (ATP levels) (MDA-MB-468 cells; 15.625 nM, listed as PU-HZ151, 0.015625 µM): 116.083 and 108.992
- Cell viability (ATP levels) (MDA-MB-468 cells; 31.25 nM, listed as PU-HZ151, 0.03125 µM): 42.5333 and 26.2083
- Cell viability (ATP levels) (MDA-MB-468 cells; 62.5 nM, listed as PU-HZ151, 0.0625 µM): 4.317 and 13.7833 and 10.55
- Cell viability (ATP levels) (MDA-MB-468 cells; 125 nM, listed as PU-HZ151, 0.125 µM): 8.242 and 5.217
- Cell viability (ATP levels) (MDA-MB-468 cells; 500 nM, listed as PU-HZ151, 0.5 µM): 14.6417 and 13.2667
- Cell viability (ATP levels) (MDA-MB-468 cells; 1000 nM, listed as PU-HZ151, 1 µM): 13.625 and 13.2667 and 6.525
- activity in Pgp-overexpressing vs Pgp-low cells (HepG2 cells (Pgp +ve)): comparable activity
- Cell viability (ATP levels) (HepG2 cells (Pgp +ve); 1.95312 nM, replicates, listed as PU-HZ151, 0.00195312 µM): 87.8706 and 102.165
- Cell viability (ATP levels) (HepG2 cells (Pgp +ve); 3.90625 nM, replicates, listed as PU-HZ151, 0.00390625 µM): 90.4471 and 81.5412
- Cell viability (ATP levels) (HepG2 cells (Pgp +ve); 7.8125 nM, replicates, listed as PU-HZ151, 0.0078125 µM): 90.4471 and 73.8824
- Cell viability (ATP levels) (HepG2 cells (Pgp +ve); 15.625 nM, replicates, listed as PU-HZ151, 0.015625 µM): 83.4588 and 82.6941
- Cell viability (ATP levels) (HepG2 cells (Pgp +ve); 31.25 nM, replicates, listed as PU-HZ151, 0.03125 µM): 65.6706 and 60.9647
- Cell viability (ATP levels) (HepG2 cells (Pgp +ve); 62.5 nM, replicates, listed as PU-HZ151, 0.0625 µM): 37.2471 and 23.6471
- Cell viability (ATP levels) (HepG2 cells (Pgp +ve); 125 nM, replicates, listed as PU-HZ151, 0.125 µM): 13.5294 and 11.2118
- Cell viability (ATP levels) (HepG2 cells (Pgp +ve); 500 nM, replicates, listed as PU-HZ151, 0.5 µM): 2.612 and 2.282
- Cell viability (ATP levels) (HepG2 cells (Pgp +ve); 1000 nM, replicates, listed as PU-HZ151, 1 µM): 1.824
- viability at 0.00195312 µM (HepG2 cells (Pgp +ve); Homo sapiens, HepG2, HEPG2, 1.95312 nM, replicates): 99.4%
- viability at 0.00390625 µM (HepG2 cells (Pgp +ve); Homo sapiens, HepG2, HEPG2, 3.90625 nM, replicates): 81.2%
- viability at 0.0078125 µM (HepG2 cells (Pgp +ve); Homo sapiens, HepG2, HEPG2, 7.8125 nM, replicates): 79.7%
- viability at 0.015625 µM (HepG2 cells (Pgp +ve); Homo sapiens, HepG2, HEPG2, 15.625 nM, replicates): 72.1%
- viability at 0.03125 µM (HepG2 cells (Pgp +ve); Homo sapiens, HepG2, HEPG2, 31.25 nM, replicates): 70.3%
- viability at 0.0625 µM (HepG2 cells (Pgp +ve); Homo sapiens, HepG2, HEPG2, 62.5 nM, replicates): 27.4%
- viability at 0.125 µM (HepG2 cells (Pgp +ve); Homo sapiens, HepG2, HEPG2, 125 nM, replicates): 16.9%
- viability at […] (HepG2 cells (Pgp +ve); Homo sapiens, HepG2, HEPG2, 250 nM, replicates): 2.72%
- viability at 0.5 µM (HepG2 cells (Pgp +ve); Homo sapiens, HepG2, HEPG2, 500 nM, replicates): 1.86%
- viability at 1 µM (HepG2 cells (Pgp +ve); Homo sapiens, HepG2, HEPG2, 1000 nM, replicates): 1.85%
- acute toxicity [2]: No mortality or morbidity was observed
- species detected in lesions and brain [3]: only the intact PU-HZ151 molecule
